Measurements published in patent US20170355705A1 (GlaxoSmithKline Intellectual Property (No.2) Limited, priority 2014, published 2017).

Molecular target: T1, SIRT1 (Homo sapiens, UniProt Q96EB6)
T1 sequence (Q96EB6 1-747): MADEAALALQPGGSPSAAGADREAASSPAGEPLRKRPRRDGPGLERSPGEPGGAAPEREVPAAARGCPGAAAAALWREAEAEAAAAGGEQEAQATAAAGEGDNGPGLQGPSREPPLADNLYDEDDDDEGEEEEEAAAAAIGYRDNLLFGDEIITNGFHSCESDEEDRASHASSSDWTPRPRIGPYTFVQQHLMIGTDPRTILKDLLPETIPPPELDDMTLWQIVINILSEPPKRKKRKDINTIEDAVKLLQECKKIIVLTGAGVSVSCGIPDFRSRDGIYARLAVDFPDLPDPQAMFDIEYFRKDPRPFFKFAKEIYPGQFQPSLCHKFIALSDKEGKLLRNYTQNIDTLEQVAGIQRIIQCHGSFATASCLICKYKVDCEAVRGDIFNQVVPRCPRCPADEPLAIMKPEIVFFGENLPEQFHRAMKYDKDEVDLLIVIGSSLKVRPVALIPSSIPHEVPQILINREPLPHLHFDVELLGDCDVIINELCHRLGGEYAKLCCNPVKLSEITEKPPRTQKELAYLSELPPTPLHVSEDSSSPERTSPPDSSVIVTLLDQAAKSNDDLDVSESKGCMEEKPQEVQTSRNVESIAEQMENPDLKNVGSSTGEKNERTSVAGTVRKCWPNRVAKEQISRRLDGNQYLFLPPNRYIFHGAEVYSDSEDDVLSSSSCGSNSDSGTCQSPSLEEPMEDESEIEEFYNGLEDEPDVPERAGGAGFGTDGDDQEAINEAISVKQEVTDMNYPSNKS
Assay: Trp mass spectrometry assay of SIRT1 activity (EC1.5, percent maximum activation)
Type: biochemical
Conditions: Trp mass spectrometry assay; for TRP Activity (EC1.5): EC1.5 = concentration giving 150% activation of SIRT1; for TRP MAX RESP (percent maximum fold activation): percent maximum activation of SIRT1
How it was run: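 Activation values derive from mass-spectrometric measurement of NAD-dependent deacetylation product after a 25 min reaction of bacterially expressed His-tagged SIRT1 with a fluorophore-labelled Trp peptide.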

| TRP Activity (EC1.5) | TRP MAX RESP (percent maximum fold activation) | SMILES |
| --- | --- | --- |
| B (EC1.5 1-25 μM) | A (Fold activation ≧150%) | O=C(Nc1cnccn1)N1c2nc(-c3ccn[nH]3)ccc2N2CC[C@H]1C2 [Example 176, (4S)-N-(pyrazin-2-yl)-7-(1H-pyrazol-5-yl)-3,4-dihydro-1,4-methanopyrido[2,3-b][1,4]diazepine-5(2H)-carboxamide] |
| C (EC1.5>25 μM) | B (Fold Activation <150%) | O=C(O)c1cc(-c2ccc3c(n2)N(C(=O)Nc2cnccn2)[C@H]2CCN3C2)ccn1 [Example 177, 4-((4S)-5-(pyrazin-2-ylcarbamoyl)-2,3,4,5-tetrahydro-1,4-methanopyrido[2,3-b][1,4]diazepin-7-yl)picolinic acid] |
| B (EC1.5 1-25 μM) | A (Fold activation ≧150%) | Cc1ccc(NC(=O)N2c3nc(-c4ccnc(C)c4)ccc3N3CC[C@H]2C3)cn1 [Example 178, (4S)-N-(6-methylpyridin-3-yl)-7-(2-methylpyridin-4-yl)-3,4-dihydro-1,4-methanopyrido[2,3-b][1,4]diazepine-5(2H)-carboxamide] |
| B (EC1.5 1-25 μM) | A (Fold activation ≧150%) | CN(C)c1cc(-c2ccc3c(n2)N(C(=O)Nc2cnccn2)[C@H]2CCN3C2)ccn1 [Example 179, (4S)-7-(2-(dimethylamino)pyridin-4-yl)-N-(pyrazin-2-yl)-3,4-dihydro-1,4-methanopyrido[2,3-b][1,4]diazepine-5(2H)-carboxamide] |
| B (EC1.5 1-25 μM) | A (Fold activation ≧150%) | O=C(Nc1cnccn1)N1c2nc(-c3ccc(C4CC4)nc3)ccc2N2CC[C@H]1C2 [Example 180, (4S)-7-(6-cyclopropylpyridin-3-yl)-N-(pyrazin-2-yl)-3,4-dihydro-1,4-methanopyrido[2,3-b][1,4]diazepine-5(2H)-carboxamide] |
| C (EC1.5>25 μM) | B (Fold Activation <150%) | Cc1cc(-c2ccc3c(n2)N(C(=O)Nc2cnncn2)[C@H]2CCN3C2)ccn1 [Example 187, (4S)-7-(2-methylpyridin-4-yl)-N-(1,2,4-triazin-5-yl)-3,4-dihydro-1,4-methanopyrido[2,3-b][1,4]diazepine-5(2H)-carboxamide] |
| A (EC1.5<1 μM) | A (Fold activation ≧150%) | Cc1cc(-c2ccc3c(n2)N(C(=O)Nc2cncc(F)n2)[C@H]2CCN3C2)ccn1 [Example 190, (4S)-N-(6-fluoropyrazin-2-yl)-7-(2-methylpyridin-4-yl)-3,4-dihydro-1,4-methanopyrido[2,3-b][1,4]diazepine-5(2H)-carboxamide] |
| B (EC1.5 1-25 μM) | A (Fold activation ≧150%) | Cc1ccc(-c2ccc3c(n2)N(C(=O)Nc2cnccn2)[C@H]2CCN3C2)c(C)n1 [Example 200, (4S)-7-(2,6-dimethylpyridin-3-yl)-N-(pyrazin-2-yl)-3,4-dihydro-1,4-methanopyrido[2,3-b][1,4]diazepine-5(2H)-carboxamide] |

Further lines, the molecule ahead of its results:

| SMILES | TRP Activity (EC1.5) | TRP MAX RESP (percent maximum fold activation) |
| --- | --- | --- |
| Cc1cc(-c2ccc3c(n2)N(C(=O)NC2CCCC2)[C@H]2CCN3C2)ccn1 [Example 175, (4S)-N-cyclopentyl-7-(2-methylpyridin-4-yl)-3,4-dihydro-1,4-methanopyrido[2,3-b][1,4]diazepine-5(2H)-carboxamide] | B (EC1.5 1-25 μM) | A (Fold activation ≧150%) |
| O=C(Nc1cnccn1)N1c2nc(N3CCCCC3)ccc2N2CC[C@H]1C2 [Example 181, (4S)-7-(piperidin-1-yl)-N-(pyrazin-2-yl)-3,4-dihydro-1,4-methanopyrido[2,3-b][1,4]diazepine-5(2H)-carboxamide] | B (EC1.5 1-25 μM) | A (Fold activation ≧150%) |
| Cc1cc(-c2ccc3c(n2)N(C(=O)Nc2ccn(C)n2)[C@H]2CCN3C2)ccn1 [Example 182, (4S)-N-(1-methyl-1H-pyrazol-3-yl)-7-(2-methylpyridin-4-yl)-3,4-dihydro-1,4-methanopyrido[2,3-b][1,4]diazepine-5(2H)-carboxamide] | B (EC1.5 1-25 μM) | A (Fold activation ≧150%) |
| Cc1cc(-c2ccc3c(n2)N(C(=O)NC2CCC2)[C@H]2CCN3C2)ccn1 [Example 183, (4S)-N-cyclobutyl-7-(2-methylpyridin-4-yl)-3,4-dihydro-1,4-methanopyrido[2,3-b][1,4]diazepine-5(2H)-carboxamide] | B (EC1.5 1-25 μM) | A (Fold activation ≧150%) |
| Cc1cc(-c2ccc3c(n2)N(C(=O)NCc2ccccn2)[C@H]2CCN3C2)ccn1 [Example 186, (4S)-7-(2-methylpyridin-4-yl)-N-(pyridin-2-ylmethyl)-3,4-dihydro-1,4-methanopyrido[2,3-b][1,4]diazepine-5(2H)-carboxamide] | C (EC1.5>25 μM) | B (Fold Activation <150%) |
| Cc1cc(-c2ccc3c(n2)N(C(=O)Nc2ccc4[nH]cnc4n2)[C@H]2CCN3C2)ccn1 [Example 189, (4S)-N-(1H-imidazo[4,5-b]pyridin-5-yl)-7-(2-methylpyridin-4-yl)-3,4-dihydro-1,4-methanopyrido[2,3-b][1,4]diazepine-5(2H)-carboxamide] | B (EC1.5 1-25 μM) | A (Fold activation ≧150%) |
| O=C(Nc1cnccn1)N1c2nc(N3CCC(C(F)(F)F)CC3)ccc2N2CC[C@H]1C2 [Example 191, (4S)-N-(pyrazin-2-yl)-7-(4-(trifluoromethyl)piperidin-1-yl)-3,4-dihydro-1,4-methanopyrido[2,3-b][1,4]diazepine-5(2H)-carboxamide] | A (EC1.5<1 μM) | A (Fold activation ≧150%) |
| Cc1cncc(NC(=O)N2c3nc(-c4ccnc(C)c4)ccc3N3CC[C@H]2C3)c1 [Example 194, (4S)-N-(5-methylpyridin-3-yl)-7-(2-methylpyridin-4-yl)-3,4-dihydro-1,4-methanopyrido[2,3-b][1,4]diazepine-5(2H)-carboxamide] | B (EC1.5 1-25 μM) | A (Fold activation ≧150%) |
| Cc1cc(-c2ccc3c(n2)N(C(=O)Nc2ccc4c(c2)OCO4)[C@H]2CCN3C2)ccn1 [Example 195, (4S)-N-(benzo[d][1,3]dioxol-5-yl)-7-(2-methylpyridin-4-yl)-3,4-dihydro-1,4-methanopyrido[2,3-b][1,4]diazepine-5(2H)-carboxamide] | A (EC1.5<1 μM) | A (Fold activation ≧150%) |
| Cc1cc(-c2ccc3c(n2)N(C(=O)NCCc2ccccn2)[C@H]2CCN3C2)ccn1.Cl [Example 196, (4S)-7-(2-methylpyridin-4-yl)-N-(2-(pyridin-2-yl)ethyl)-3,4-dihydro-1,4-methanopyrido[2,3-b][1,4]diazepine-5(2H)-carboxamide hydrochloride] | C (EC1.5>25 μM) | B (Fold Activation <150%) |
| O=C(Nc1cnccn1)N1c2nc(N3CCNCC3)ccc2N2CC[C@H]1C2 [Example 197, (4S)-7-(piperazin-1-yl)-N-(pyrazin-2-yl)-3,4-dihydro-1,4-methanopyrido[2,3-b][1,4]diazepine-5(2H)-carboxamide] | C (EC1.5>25 μM) | B (Fold Activation <150%) |
| CC1CCN(c2ccc3c(n2)N(C(=O)Nc2cnccn2)[C@H]2CCN3C2)CC1 [Example 198, (4S)-7-(4-methylpiperidin-1-yl)-N-(pyrazin-2-yl)-3,4-dihydro-1,4-methanopyrido[2,3-b][1,4]diazepine-5(2H)-carboxamide] | B (EC1.5 1-25 μM) | A (Fold activation ≧150%) |
| CCn1cc(-c2nc3c(cc2Cl)N2CC[C@@H](C2)N3C(=O)Nc2ccnc(OC[C@@H](O)CO)c2)cn1 [Example 199, (4S)-8-chloro-N-(2-((S)-2,3-dihydroxypropoxy)pyridin-4-yl)-7-(1-ethyl-1H-pyrazol-4-yl)-3,4-dihydro-1,4-methanopyrido[2,3-b][1,4]diazepine-5(2H)-carboxamide] | B (EC1.5 1-25 μM) | A (Fold activation ≧150%) |
